Data from patent publication US20250032484A1, “THERAPEUTIC TARGETS AND AGENTS FOR THE TREATMENT OF POSTTRAUMATIC STRESS DISORDER” (priority 2021, published 2025).

System: VA patients with PTSD (PTSD symptoms, PTSD Checklist)
Assay: TreeScan nested case-control study of medications associated with PTSD symptom improvement (PTSD Checklist) in VA records
Format: in vivo, human
Conditions: for association with PTSD symptom improvement, in words (statistical alert at P<0.1): overall sample
Description: Study Sample and Data Sources. A nested case-control study was conducted within a previously established retrospective cohort that included all VA users with a clinical diagnosis of PTSD (International Classification of Diseases [ICD]-9:309.81, ICD-10: F43.1x) from Oct. 1, 1999 through Sep. 30, 2019 (Shiner et al. (2021) J Eval Clin Pract.). The data source contains information on services use, clinical diagnoses, filled prescriptions, and patient-reported outcome measures (PROMs) for PTSD using the PTSD Checklist (PCL) for these patients. This study was approved by the Veterans Institutional Review Board of Northern New England.
The goal of the current study was to evaluate any filled medications associated with PTSD symptom improvement, and as such, the analytic sample for this study included only patients with PROMs that were at least 30 days apart. 30 days was selected to allow for medications to be taken for at least one full course (typically 28 days). Patients with PROMs more than 365 days apart were excluded as these are unlikely to provide an accurate assessment of PTSD symptom change between the two time points. For patients who had two overlapping PROM intervals, those closest to 84 days in length were chosen to emulate typical PTSD medication efficacy trials (Watts et al. (2013) J Clin Psychiatry. 74: e541-550). When a patient had two or more overlapping intervals at exactly 84 days, the historically earliest interval was chosen. If patients had multiple non-overlapping intervals, all were included. Patients who met the selection criteria for PTSD in the original cohort and had at least one PROM pair where they started a new medication (defined below) constituted the overall analytic sample for the current study.
PTSD Improvement Cases and No Improvement Controls. In order to maximize the number of patients with available symptomatic measurement, two different versions of a PROM for PTSD were integrated into a single dataset (Shiner et al. (2021) J Eval Clin Pract.). The two PROMs were the PCL versions aligned to the Diagnostic and Statistical Manual of Mental Disorders (DSM), version IV and Version 5 (APA (2000): Diagnostic and Statistical Manual of Mental Disorders. 4th Edition. Text Revision: DSM-IV-TR. Arlington, VA: American Psychiatric Association: APA (2013): Diagnostic and Statistical Manual of Mental Disorders: Fifth Edition (DSM-5). Washington, D.C.: American Psychiatric Association), which will heretofore be called the PCL-IV and the PCL-5 (Blevins et al. (2015) J Trauma Stress. 28:489-498: Weathers et al. (1993) Trauma. Coping. and Adaptation. San Antonio, Texas: International Society for Traumatic Stress Studies, 9th Annual Meeting). […] A validated crosswalk (ICC=0.96) was used to convert all values to PCL-5 scoring (Moshier et al. (Under review): An empirical crosswalk for the PTSD Checklist: Translating DSM-IV to DSM-5). PTSD improvement cases were defined by a clinically meaningful improvement, which was a decrease of 15 points or more between assessment points (Lee et al. (2019) Reliable Change Index and Clinically Significant Margins for the CAPS-5 and PCL-5 among Veterans. Boston, MA: International Society for Traumatic Stress Studies, 35th Annual Meeting). […] Thus, the no PTSD improvement control group was defined as worsening of symptoms or reductions of up to 7 points on the PCL. Improvements between 8 and 14 points were of uncertain clinical significance and were therefore excluded.
Identification and Classification of New Medications. The predictors of interest were initiation of medications for any indication. Candidate agents included those that were started in the interval between PCL pairs and continued for at least a 28-day supply. When patients started multiple medications between a given PCL pair, they contributed information for each of the medications in the tree.

[1] = all patients in the overall sample
[2] = baseline PCL 38 or higher, PTSD diagnosis within 30 days, without any concurrent evidence-based treatment
[3] = baseline PCL score of 38 or higher and PTSD diagnosis within 30 days
[4] = case = improved by 15 or more points on PTSD Checklist, all patients in the overall sample
[5] = improvement in PTSD, all patients in the overall sample
[6] = overall sample without any concurrent evidence-based treatment

## CN1CCCC1c1cccnc1 (stereo not shown) [Nicotine]
[1]
  EXP = Expected Cases: 2109
[2]
  EXP = Expected Cases: 522
  O:E = Observed Cases over Expected Cases: 1.17
  OBS = Observed Cases: 610
[3]
  EXP = Expected Cases: 1736
  OBS = Observed Cases: 2007
[4]
  OBS = Observed Cases: 2371
[5]
  O:E = Observed Cases over Expected Cases: 1.13

## CN(C)CCCC1(c2ccc(F)cc2)OCc2cc(C#N)ccc21 (stereo not shown) [Citalopram]
[1]
  EXP = Expected Cases: 1508
[2]
  EXP = Expected Cases: 632
  O:E = Observed Cases over Expected Cases: 1.25
  OBS = Observed Cases: 785
[3]
  EXP = Expected Cases: 1202
  O:E = Observed Cases over Expected Cases: 1.10
  OBS = Observed Cases: 1315
[4]
  OBS = Observed Cases: 1653
[5]
  O:E = Observed Cases over Expected Cases: 1.10
  association with PTSD symptom improvement, in words (statistical alert at P<0.1): similarly small associations
[6]
  EXP = Expected Cases: 814
  O:E = Observed Cases over Expected Cases: 1.28
  OBS = Observed Cases: 1039

## COc1ccc2[nH]cc(CCNC(C)=O)c2c1 [Melatonin]
[1]
  EXP = Expected Cases: 1161
[3]
  EXP = Expected Cases: 1033
  O:E = Observed Cases over Expected Cases: 1.10
  OBS = Observed Cases: 1131
[4]
  OBS = Observed Cases: 1295
[5]
  O:E = Observed Cases over Expected Cases: 1.12

## COC(=O)N[C@H](C(=O)N1CC2(CC2)C[C@H]1c1nc(-c2ccc3c(c2)C(F)(F)c2cc(-c4ccc5nc([C@@H]6[C@H]7CC[C@H](C7)N6C(=O)[C@@H](NC(=O)OC)C(C)C)[nH]c5c4)ccc2-3)c[nH]1)C(C)C [ledipasvir]
  association with PTSD symptom improvement, in words (statistical alert at P<0.1): Neither sofosbuvir nor ledipasvir were associated with a significantly higher than expected improvement

## COC(=O)N[C@H](C(=O)N1CCC[C@H]1c1nc2cc(F)c([C@H]3CC[C@H](c4cc5[nH]c([C@@H]6CCCN6C(=O)[C@@H](NC(=O)OC)[C@@H](C)OC)nc5cc4F)N3c3cc(F)c(N4CCC(c5ccc(F)cc5)CC4)c(F)c3)cc2[nH]1)[C@@H](C)OC [Pibrentasvir, pibrentasvir]
[1]
  EXP = Expected Cases: 16
[2]
  EXP = Expected Cases: 4
  O:E = Observed Cases over Expected Cases: 3.52
  OBS = Observed Cases: 14
[3]
  EXP = Expected Cases: 14
  O:E = Observed Cases over Expected Cases: 2.21
  OBS = Observed Cases: 30
[4]
  OBS = Observed Cases: 33
[5]
  O:E = Observed Cases over Expected Cases: 2.09
Improvement in PTSD, all patients in the overall sample, listed as pibrentasvir
  O:E = Observed Cases over Expected Cases: 2.09
[6]
  EXP = Expected Cases: 5
  O:E = Observed Cases over Expected Cases: 3.09
  OBS = Observed Cases: 14

## CC(C)OC(=O)[C@H](C)N[P@](=O)(OC[C@H]1O[C@@H](n2ccc(=O)[nH]c2=O)[C@](C)(F)[C@@H]1O)Oc1ccccc1 [sofosbuvir]
  association with PTSD symptom improvement, in words (statistical alert at P<0.1): Neither sofosbuvir nor ledipasvir were associated with a significantly higher than expected improvement

## Naloxone
[1]
  EXP = Expected Cases: 312
[3]
  EXP = Expected Cases: 279
  O:E = Observed Cases over Expected Cases: 1.35
  OBS = Observed Cases: 376
[4]
  OBS = Observed Cases: 426
[5]
  O:E = Observed Cases over Expected Cases: 1.37

## CN(C)CCC[C@@]1(c2ccc(F)cc2)OCc2cc(C#N)ccc21 [Escitalopram]
[6]
  EXP = Expected Cases: 474
  OBS = Observed Cases: 558

## CNCC[C@@H](Oc1ccccc1C)c1ccccc1 [Atomoxetine]
[1]
  EXP = Expected Cases: 74
[3]
  EXP = Expected Cases: 65
  O:E = Observed Cases over Expected Cases: 1.41
  OBS = Observed Cases: 92
[4]
  OBS = Observed Cases: 104
[5]
  O:E = Observed Cases over Expected Cases: 1.40

## Cc1ncc(C[n+]2csc(CCO)c2C)c(N)n1 [Thiamine]
[1]
  EXP = Expected Cases: 351
[3]
  EXP = Expected Cases: 304
  O:E = Observed Cases over Expected Cases: 1.24
  OBS = Observed Cases: 377
[4]
  OBS = Observed Cases: 444
[5]
  O:E = Observed Cases over Expected Cases: 1.27
[6]
  EXP = Expected Cases: 106
  O:E = Observed Cases over Expected Cases: 1.38
  OBS = Observed Cases: 146

## Naltrexone
[1]
  EXP = Expected Cases: 504
[3]
  EXP = Expected Cases: 444
  O:E = Observed Cases over Expected Cases: 1.21
  OBS = Observed Cases: 536
[4]
  OBS = Observed Cases: 605
[5]
  O:E = Observed Cases over Expected Cases: 1.20

## Quetiapine
[6]
  EXP = Expected Cases: 371
  O:E = Observed Cases over Expected Cases: 1.24
  OBS = Observed Cases: 460

## Nc1nc2ncc(CNc3ccc(C(=O)N[C@@H](CCC(=O)O)C(=O)O)cc3)nc2c(=O)[nH]1 [Folic Acid]
[1]
  EXP = Expected Cases: 445
[3]
  EXP = Expected Cases: 391
  O:E = Observed Cases over Expected Cases: 1.20
  OBS = Observed Cases: 469
[4]
  OBS = Observed Cases: 567
[5]
  O:E = Observed Cases over Expected Cases: 1.27
[6]
  EXP = Expected Cases: 134
  O:E = Observed Cases over Expected Cases: 1.38
  OBS = Observed Cases: 185

## Fluoxetine
[1]
  EXP = Expected Cases: 1571
[4]
  OBS = Observed Cases: 1716
[5]
  O:E = Observed Cases over Expected Cases: 1.09
  association with PTSD symptom improvement, in words (statistical alert at P<0.1): similarly small associations

## [Li] [Lithium]
[1]
  EXP = Expected Cases: 246
[4]
  OBS = Observed Cases: 304
[5]
  O:E = Observed Cases over Expected Cases: 1.24
  association with PTSD symptom improvement, in words (statistical alert at P<0.1): similarly small associations
[6]
  EXP = Expected Cases: 92
  O:E = Observed Cases over Expected Cases: 1.38
  OBS = Observed Cases: 127

## O=c1n(CCCN2CCN(c3cccc(Cl)c3)CC2)nc2ccccn12 [Trazodone]
[1]
  EXP = Expected Cases: 4061
[2]
  EXP = Expected Cases: 893
  O:E = Observed Cases over Expected Cases: 1.12
  OBS = Observed Cases: 992
[3]
  EXP = Expected Cases: 3396
  O:E = Observed Cases over Expected Cases: 1.07
  OBS = Observed Cases: 3610
[4]
  OBS = Observed Cases: 4308
[5]
  O:E = Observed Cases over Expected Cases: 1.06
  association with PTSD symptom improvement, in words (statistical alert at P<0.1): similarly small associations
[6]
  EXP = Expected Cases: 1157
  O:E = Observed Cases over Expected Cases: 1.1
  OBS = Observed Cases: 1272

## CN1CCN2c3ncccc3Cc3ccccc3C2C1 (stereo not shown) [Mirtazapine]
[6]
  EXP = Expected Cases: 755
  O:E = Observed Cases over Expected Cases: 1.13
  OBS = Observed Cases: 849

## COC[C@H]1C[C@@H](c2ncc(-c3ccc4c(c3)COc3cc5c(ccc6[nH]c([C@@H]7CC[C@H](C)N7C(=O)[C@@H](NC(=O)OC)C(C)C)nc65)cc3-4)[nH]2)N(C(=O)[C@H](NC(=O)OC)c2ccccc2)C1 [Velpatasvir, velpatasvir]
[1]
  EXP = Expected Cases: 11
[3]
  EXP = Expected Cases: 10
  O:E = Observed Cases over Expected Cases: 2.17
  OBS = Observed Cases: 21
[4]
  OBS = Observed Cases: 24
[5]
  O:E = Observed Cases over Expected Cases: 2.10
Improvement in PTSD, all patients in the overall sample, listed as velpatasvir
  O:E = Observed Cases over Expected Cases: 2.10

## Cholecalciferol
[1]
  EXP = Expected Cases: 2470
[3]
  EXP = Expected Cases: 2070
  O:E = Observed Cases over Expected Cases: 1.08
  OBS = Observed Cases: 2238
[4]
  OBS = Observed Cases: 2647
[5]
  O:E = Observed Cases over Expected Cases: 1.07

## Sertraline
[1]
  EXP = Expected Cases: 4025
[3]
  EXP = Expected Cases: 3434
  OBS = Observed Cases: 3909
[4]
  OBS = Observed Cases: 4659
